This note sets out measurements from ChEMBL document CHEMBL1949595, “Fluorinated ΔF508-CFTR correctors and potentiators for PET imaging” (Bioorg Med Chem Lett, 2012).

The target of test [1] is Cystic fibrosis transmembrane conductance regulator (Homo sapiens, UniProt P13569, F508DEL). Description: Corrector activity at human CFTR delta F508 mutant expressed in rat FRT cells coexpressing fluorescent protein YFP-H148Q/1152L by fluorescence assay. The format is cell-based.
The nature of test [2]: Potentiation activity at human CFTR delta F508 mutant-mediated iodine flux expressed in rat FRT cells coexpressing fluorescent protein YFP-H148Q/1152L by fluorescence assay. The format is cell-based.

Chain of Cystic fibrosis transmembrane conductance regulator (P13569 as listed by the source): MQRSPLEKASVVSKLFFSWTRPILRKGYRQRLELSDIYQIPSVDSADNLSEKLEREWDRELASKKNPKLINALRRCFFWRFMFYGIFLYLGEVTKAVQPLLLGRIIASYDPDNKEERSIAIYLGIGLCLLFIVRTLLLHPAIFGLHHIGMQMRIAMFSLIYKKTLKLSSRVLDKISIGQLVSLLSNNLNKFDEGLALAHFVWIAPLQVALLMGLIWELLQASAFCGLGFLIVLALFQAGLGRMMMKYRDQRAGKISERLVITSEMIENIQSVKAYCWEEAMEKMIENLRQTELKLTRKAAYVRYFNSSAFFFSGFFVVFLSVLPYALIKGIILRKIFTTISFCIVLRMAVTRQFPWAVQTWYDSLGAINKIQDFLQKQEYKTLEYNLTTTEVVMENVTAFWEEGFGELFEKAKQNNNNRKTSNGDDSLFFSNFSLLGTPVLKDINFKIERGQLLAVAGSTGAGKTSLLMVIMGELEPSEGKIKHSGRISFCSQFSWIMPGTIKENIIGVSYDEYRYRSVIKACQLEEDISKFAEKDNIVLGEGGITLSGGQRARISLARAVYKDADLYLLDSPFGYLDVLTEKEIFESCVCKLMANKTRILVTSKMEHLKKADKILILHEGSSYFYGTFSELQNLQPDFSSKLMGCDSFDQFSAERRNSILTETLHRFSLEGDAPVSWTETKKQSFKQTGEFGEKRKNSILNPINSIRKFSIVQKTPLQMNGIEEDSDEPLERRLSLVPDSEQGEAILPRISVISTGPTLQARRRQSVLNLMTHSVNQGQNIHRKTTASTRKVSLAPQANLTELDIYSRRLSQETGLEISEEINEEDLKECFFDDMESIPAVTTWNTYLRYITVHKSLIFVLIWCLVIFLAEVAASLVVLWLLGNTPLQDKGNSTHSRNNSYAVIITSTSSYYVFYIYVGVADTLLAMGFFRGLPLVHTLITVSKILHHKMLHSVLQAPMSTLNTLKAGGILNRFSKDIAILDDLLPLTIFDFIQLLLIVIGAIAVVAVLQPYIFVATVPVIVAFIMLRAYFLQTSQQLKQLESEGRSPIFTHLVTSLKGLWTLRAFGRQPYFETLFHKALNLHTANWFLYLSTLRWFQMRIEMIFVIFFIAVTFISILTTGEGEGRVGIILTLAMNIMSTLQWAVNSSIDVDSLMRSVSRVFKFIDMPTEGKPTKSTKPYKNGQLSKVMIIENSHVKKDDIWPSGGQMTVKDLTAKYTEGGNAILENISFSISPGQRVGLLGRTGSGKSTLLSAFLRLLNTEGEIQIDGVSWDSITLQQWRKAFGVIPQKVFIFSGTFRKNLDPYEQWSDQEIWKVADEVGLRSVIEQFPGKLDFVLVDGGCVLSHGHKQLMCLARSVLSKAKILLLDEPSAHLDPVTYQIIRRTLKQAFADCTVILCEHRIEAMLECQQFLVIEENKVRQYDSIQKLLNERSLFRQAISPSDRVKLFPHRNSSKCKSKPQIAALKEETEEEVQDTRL

Take `Cc1nc(NC(=O)c2ccc([19F])cc2)sc1-c1csc(Nc2cc(N(C)C)ccc2Cl)n1`: a half-maximal effect in test [1] (EC50) was put at 1.4 µM.

As for `COc1ccc(Cl)cc1Nc1nc(-c2sc(NC(=O)c3ccc([19F])cc3)nc2C)cs1`, the concentration for a half-maximal effect (EC50) in test [1] was 1.4 µM.

As for `CN(C(=O)Cc1c[nH]c2ccccc12)[C@H](C(=O)Nc1ccc([19F])cc1)c1ccccc1`, the concentration for a half-maximal effect (EC50) in test [2] stood at 0.09 µM.

In the case of `CN(C(=O)Cc1c[nH]c2ccccc12)[C@H](C(=O)Nc1ccc(-n2cc(CCC[19F])nn2)cc1)c1ccccc1`, the EC50 in test [2] came out at 1.1 µM.

The compound `COc1ccc(Cl)cc1Nc1nc(-c2sc(NC(=O)c3ccccc3)nc2C)cs1` came in with an EC50 in test [1] of 2.3 µM.

As a reminder, the EC50 is the concentration at which the effect is half-maximal.
